One compound from US20100022600A1, “METHODS AND COMPOSITIONS FOR TREATING CENTRAL NERVOUS SYSTEM TUMORS” (priority 2006, published 2010) can be followed below.

The test system of one assay is Ki-67. Briefly: Ki-67 immunoreactivity and proliferation-index in vivo. Further details: species or system rat. The settings on record: 9, 14 and 21 days of pio treatment. Here is the method:
Frozen brain sections were first blocked with 5% normal goat serum or normal horse serum in PBS and subsequently incubated with rabbit anti-Ki-67 antibody (1:200 dilution), mouse anti-CS-56 (1:100 dilution), goat anti-MMP-9 (1:100 dilution) or rabbit anti-cleaved caspase-3 antibody (1:200 dilution) at 4° C. overnight. Sections were washed extensively with PBS before incubation with secondary antibodies. Incubation was carried at room temperature for 1 h. After washing with PBS three times, stained slides were mounted with PBS/glycerol (1:1) and viewed under a fluorescent microscope (Leica, Germany). For determination of the proliferation-index, Ki-67 positive cells in pio and vehicle treated cells and animals were counted, the percentage of Ki-67 positive cells in 1×10^3 tumor cells (P1 staining used in the in vitro experiments—not shown; DAPI stain used in the in vivo experiments) calculated and statistically compared. The percentage of cleaved caspase-3 positive cells was assessed by counting the immunopositive cells in 1×10^3 tumor (DAPI stain) cells and statistically compared.

Another assay relates to CS-56. The assay is described as follows: CS-56 expression in vivo (western blot, immunohistochemistry). Details: species or system rat. The protocol: (§1) For western-blot analysis, tumor-containing hemispheres were homogenized in Tris-HCl [50 mM Tris-HCl pH8, 120 mM NaCl, 5 mM EDTA, 0.5% (v/v) NP-40, […] phenylmethylsulfonyl fluoride (PMSF)] and sonicated. Homogenates were collected by centrifugation (15 min 11000 g. 4° C.) and protein concentration in the supernatant was determined using the Bio-Rad Protein Assay (Biorad, Munich, Germany). Lysates (20-40 μg) were separated on a 7% (w/v) sodium dodecyl sulfate (SDS)-polyacrylamide gel under reducing conditions and transferred to a PVDF membrane (Millipore, Bedford, Mass., USA). Non-specific binding was blocked by incubation with 5% (w/v) skimmed milk in TBS for 2 h. Following incubation with the primary antibody overnight at 4° C. [rabbit anti-BAX 1:1000, rabbit anti-cleaved caspase-3 1:1000, mouse […] 1:1000, goat anti-MMP-9 1:1000 in TBS containing 0.1% (v/v) Tween 20] membranes were washed three times in TBS/Tween for 5 min and subsequently incubated for 120 min in TBS/Tween containing secondary peroxidase-conjugated antibody at room temperature (anti-rabbit 1:1000, anti-mouse 1:1000; anti-goat 1:1000 respectively). Signals were visualized by chemoluminescence (Pierce, Rockford, Ill., USA) and band intensities were quantified with NIH Image 1.62 software (Bethesda, Md., USA). Frozen brain sections were first blocked with 5% normal goat serum or normal horse serum in PBS and subsequently incubated with rabbit anti-Ki-67 antibody (1:200 dilution), mouse anti-CS-56 (1:100 dilution), goat anti-MMP-9 (1:100 dilution) or rabbit anti-cleaved caspase-3 antibody (1:200 dilution) at 4° C. overnight. Sections were washed extensively with PBS before incubation with secondary antibodies. Incubation was carried at room temperature for 1 h. After washing with PBS three times, stained slides were mounted with PBS/glycerol (1:1) and viewed under a fluorescent microscope (Leica, Germany).
On the technique in general: A western blot detects proteins with antibodies after separation by electrophoresis.

Assay [1] can be described thus: Daily body weight in C6 rat glioma model. It counts as in vivo. Conditions: daily weighing; vehicle group lost weight significantly at 17 d. Here is the method: Before implantation, 85-90% confluent C6 cells were trypsinized, rinsed with DMEM+10% fetal calf serum, and centrifuged at 1000 rpm for 4 min. The cell pellet was resuspended in DMEM and placed on ice. Concentration of viable cells was adjusted to 1×10^5 cells/1 μl of DMEM. Each rat was anesthetized and placed in a stereotactic frame (David Kopf Instruments, Tujunga, Calif., USA), a hole was drilled at AP 0.0, R -3.0 relative to bregma according to the stereotaxic atlas of […], 1963). Tumor cells were injected at a rate of 0.5 μl/s, using a 2 μl Hamilton (#2701) syringe (Reno, Nev., USA) with a 26 s-gauge needle mounted on a stereotactic holder at a depth of 5 mm. […] For intracerebral administration of pio/vehicle (DMSO), the tip of an Alzet-brain-infusion-kit (Cupertino, Calif., USA) was placed in a depth of 5 mm, connected to a 2ML4 Alzet osmotic pump (Cupertino, Calif., USA). Drug administration began 4 h after surgery. […] The pumps were filled with 20 μM pio solved in PBS or vehicle (DMSO, 0.1% final concentration) solved in PBS. Animals were randomly distributed in two groups, treated with pio filled pumps (n=26) or vehicle filled pumps (n=26). Thereafter skull was cleaned and the incision sutured. […] Control animals received Purina chow without additions. Rats were allowed free access to the chow. Tumors were allowed to grow and animals were weighed daily. […]

For a further assay, the system named is human glioma cells U87. Briefly: MTT viability assay, human U87 glioma cells. It counts as cell-based. The settings on record: 30 μM pio; 3, 5 and 7 d. Here is the method:
Rat C6 glioma cells were grown in DMEM and human glioma cells (U87, A172) in RPMI, supplemented with 10% (v/v) fetal calf serum, 100 U/mL penicillin and 100 U/mL streptomycin in a 5% CO2 atmosphere. Primary astrocyte cultures were prepared as described previously (J Neurosci 1998; 18: 4451-60) and grown in DMEM, supplemented with 2.5% (v/v) fetal calf serum, 100 U/mL penicillin and 100 U/mL streptomycin in a 5% CO2 atmosphere. […] Experiments were performed in triplicate.

The next assay concerns cleaved caspase-3. The assay is described as follows: Western blot of cleaved caspase-3 in whole-hemisphere lysates, C6 rat glioma model. It counts as in vivo. The settings on record: 6 d of pio treatment. Here is the method:
as §1, with “USA).” for “USA). Frozen brain sections were first blocked with 5% normal goat serum or normal horse serum in PBS and subsequently incubated with rabbit anti-Ki-67 antibody (1:200 dilution), mouse anti-CS-56 (1:100 dilution), goat anti-MMP-9 (1:100 dilution) or rabbit anti-cleaved caspase-3 antibody (1:200 dilution) at 4° C. overnight. Sections were washed extensively with PBS before incubation with secondary antibodies. Incubation was carried at room temperature for 1 h. After washing with PBS three times, stained slides were mounted with PBS/glycerol (1:1) and viewed under a fluorescent microscope (Leica, Germany).”

Molecules are shown by their SMILES.

On to `CCc1ccc(CCOc2ccc(CC3SC(=O)NC3=O)cc2)nc1` (stereo not shown) [pioglitazone, 5-[4-[2-(5-ethylpyridin-2-yl)ethoxyl]benzyl]thiazolidine-2,4-dione], for which the “Ki-67 expression in vivo” value in the assay with Ki-67 is given as “significant reduction of Ki-67 expression”. In the assay with CS-56 (tissue lysates), the “CS-56 expression (western blot)” value was “upregulation of CS-56 expression” and the “increase in CS-56 protein levels (densitometry)” value is “around 56%”. Further, the “CS-56 expression (immunohistochemistry)” value in the assay on CS-56 (tumor margin towards healthy brain tissue) is on record as “upregulation of CS-56”. The weight loss result in assay [1] is “did not show any weight loss”. Also, the “cellular viability, effect in words” value in the assay with human glioma cells U87 was “significantly reduced cellular viability”. In addition, the “induction of cleaved caspase-3 (densitometry)” value with cleaved caspase-3 amounted to 2.88 fold.
